Consider four compounds from patent publication US7084148B2, “Substituted pyrimidines as selective cyclooxygenase-2 inhibitors” (SmithKline Beecham Corporation, priority 2000, dated 2006).

In assay [1] the target is T1, human COX-2 (Homo sapiens, UniProt P35354).
T1 construct: expressed in transfected cells
T1 sequence (P35354 18-604): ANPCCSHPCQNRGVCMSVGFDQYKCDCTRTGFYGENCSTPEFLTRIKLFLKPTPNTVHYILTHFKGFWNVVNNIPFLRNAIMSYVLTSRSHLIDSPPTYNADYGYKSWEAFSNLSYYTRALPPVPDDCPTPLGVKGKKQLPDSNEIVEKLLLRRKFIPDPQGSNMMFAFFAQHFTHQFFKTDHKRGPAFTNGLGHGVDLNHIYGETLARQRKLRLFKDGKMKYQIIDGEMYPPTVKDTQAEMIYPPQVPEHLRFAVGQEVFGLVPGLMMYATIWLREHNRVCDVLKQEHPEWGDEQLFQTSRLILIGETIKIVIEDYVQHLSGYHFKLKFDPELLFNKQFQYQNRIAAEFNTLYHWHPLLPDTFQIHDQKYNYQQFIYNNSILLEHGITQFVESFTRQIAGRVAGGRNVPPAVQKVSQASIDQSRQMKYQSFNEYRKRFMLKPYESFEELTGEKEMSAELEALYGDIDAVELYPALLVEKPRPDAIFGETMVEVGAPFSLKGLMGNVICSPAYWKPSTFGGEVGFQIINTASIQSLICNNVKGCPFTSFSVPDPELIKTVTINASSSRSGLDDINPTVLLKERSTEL
As to the kind of experiment: Inhibition of PGE2 release in COS cells stably transfected with human COX-2. The class given is cell-based. As to conditions: 30 μM arachidonic acid. The protocol: (§1) Inhibitory activity against human COX-1 and COX-2 was assessed in COS cells which had been stably transfected with cDNA for human COX-1 and human COX-2. 24 Hours prior to experiment, COS cells were transferred from the 175 cm^2 flasks in which they were grown, onto 24-well cell culture plates using the following procedure. The incubation medium (Dulbecco's modified eagles medium (DMEM) supplemented with heat-inactivated foetal calf serum (10% v/v), penicillin (100 IU/ml), streptomycin (100 μg/ml) and geneticin (600 μg/ml)) was removed from a flask of confluent cells (1 flask at confluency contains approximately 1×10^7 cells). 5 ml of phosphate buffered saline (PBS) was added to the flask to wash the cells. Having discarded the PBS, cells were then incubated with 5 ml trypsin for 5 minutes in an incubator […]. The flask was then removed from the incubator and 5 ml of fresh incubation medium was added. The contents of the flask was transferred to a 250 ml sterile container and the volume of incubation medium subsequently made up to 100 ml. 1 ml cell suspension was pipetted into each well of 4×24-well cell culture plates. The plates were then placed in an incubator (37° C., 95% air/5% CO2) overnight. If more than 1 flask of cells were required, the cells from the individual flasks were combined before being dispensed into the 24-well plates.
Following the overnight incubation, the incubation medium was completely removed from the 24-well cell culture plates and replaced with 250 μl fresh DMEM (37° C.). The test compounds were made up to 250× the required test concentration in DMSO and were added to the wells in a volume of 1 μl. Plates were then mixed gently by swirling and then placed in an incubator for 1 hour (37° C., 95% air/5% CO2). […] Plates were then incubated for a further 10 minutes, after which the incubation medium was removed from each well of the plates and stored at −20° C., prior to determination of prostaglandin E2 (PGE2) levels using enzyme immunoassay. […] The selectivity ratio of inhibition of COX-1 versus COX-2 was calculated by comparing respective IC50 values.

Assay [2] deals with T2, human COX-1 (Homo sapiens, UniProt P23219).
T2 construct: expressed in transfected cells
In words: Inhibition of PGE2 release in COS cells stably transfected with human COX-1. It is filed as cell-based. As to conditions: 30 μM arachidonic acid. As to the method: as §1
Following the overnight incubation, the incubation medium was completely removed from the 24-well cell culture plates and replaced with 250 μl fresh DMEM (37° C.). The test compounds were made up to 250× the required test concentration in DMSO and were added to the wells in a volume of 1 μl. Plates were then mixed gently by swirling and then placed in an incubator for 1 hour (37° C., 95% air/5% CO2). Following the incubation period, 10 μl of arachidonic acid (750 μM) was added to each well to give a final arachidonic acid concentration of 30 μM. Plates were then incubated for a further 10 minutes, after which the incubation medium was removed from each well of the plates and stored at −20° C., prior to determination of prostaglandin E2 (PGE2) levels using enzyme immunoassay. The inhibitory potency of the test compound was expressed as an IC50 value, which is defined as the concentration of the compound required to inhibit the PGE2 release from the cells by 50%. The selectivity ratio of inhibition of COX-1 versus COX-2 was calculated by comparing respective IC50 values.

T2 sequence (P23219 24-599): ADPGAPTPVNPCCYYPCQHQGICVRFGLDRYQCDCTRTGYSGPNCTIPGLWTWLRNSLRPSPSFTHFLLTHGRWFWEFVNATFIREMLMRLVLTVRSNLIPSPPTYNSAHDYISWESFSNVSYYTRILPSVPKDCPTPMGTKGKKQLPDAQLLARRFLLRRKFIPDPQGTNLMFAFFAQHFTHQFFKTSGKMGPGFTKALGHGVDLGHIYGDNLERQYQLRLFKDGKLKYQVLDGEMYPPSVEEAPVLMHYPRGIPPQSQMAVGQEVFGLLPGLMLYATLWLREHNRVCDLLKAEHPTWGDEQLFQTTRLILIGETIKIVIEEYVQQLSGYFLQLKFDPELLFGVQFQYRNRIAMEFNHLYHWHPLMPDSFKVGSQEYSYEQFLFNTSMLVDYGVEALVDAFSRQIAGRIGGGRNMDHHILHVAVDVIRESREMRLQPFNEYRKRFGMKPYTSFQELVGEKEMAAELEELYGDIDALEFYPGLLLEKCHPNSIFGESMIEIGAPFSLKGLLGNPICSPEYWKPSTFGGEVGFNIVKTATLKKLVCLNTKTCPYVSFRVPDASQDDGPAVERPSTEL

In the case of `CCN(c1nc(-c2ccc(S(C)(=O)=O)cc2)cc(C(F)(F)F)n1)C1CCOCC1` [Example 3, 4-[4-(Methylsulfonyl)phenyl]-N-ethyl-N-tetrahydro-2H-pyran-4-yl-6-(trifluoromethyl)pyrimidin-2-amine], the IC50 came out at 24.9 nM in assay [1] and 69700 nM in assay [2].
The like results for `CS(=O)(=O)c1ccc(-c2cc(C(F)(F)F)nc(NC3CCOCC3)n2)cc1` [Example 1, 4-[4-(methylsulfonyl)phenyl]-N-tetrahydro-2H-pyran-4-yl-6-(trifluoromethyl)pyrimidin-2-amine] were, in that order, 18 nM and greater than 91000 nM.
The like results for `CN(c1nc(-c2ccc(S(C)(=O)=O)cc2)cc(C(F)(F)F)n1)C1CCOCC1` [Example 2, 4-[4-(Methylsulfonyl)phenyl]-N-methyl-N-tetrahydro-2H-pyran-4-yl-6-(trifluoromethyl)pyrimidin-2-amine] were, in that order, 16.8 nM and 60400 nM.
The like results for `CCCCN(c1nc(-c2ccc(S(C)(=O)=O)cc2)cc(C(F)(F)F)n1)C1CCOCC1` [Example 4, 4-[4-(Methylsulfonyl)phenyl]-N-butyl-N-tetrahydro-2H-pyran-4-yl-6-(trifluoromethyl)pyrimidin-2-amine] were, in that order, 143 nM and 71800 nM.
